The record followed here is US20240360148A1 (SUVALENT THERAPEUTICS, INC., priority 2021, published 2024).

Bounds are passed on as bounds.

The target of this test is SAE1 (Homo sapiens (Human), UniProt Q9UBE0+Q9UBT2). Description: SAE High Throughput Biochemical Assay (HTRF), 15 min preincubation. Particulars: read-out: 15 min preincubation HTRF IC50 (μM) Ave, SAE1 12.5 nM, ATP 100 μM. The method, then: Assay buffer was prepared [50 mM HEPES, pH 7.5, 0.1% BSA and 10 mM MgCl2] as was the Stop Buffer [100 mM HEPES, pH 7.5, 0.05% Tween20, and 410 mM KF]. The 2×Reaction Buffer [80 nM SUMO-GST, 80 nM UBC9-His, 200 μM ATP and diluted in Assay Buffer] and Antibody Reaction Mix [13.34 nM anti-GSTXL665, 1.66 nM anti-His EuK and Diluted in Stop Buffer] were also prepared. Compounds were dissolved at 200×in DMSO in a 384-well plate. Serial dilutions were performed in DMSO for each compound, and then each concentration was diluted another 50-fold in Assay Buffer, to 4× the final concentration. 2.5 μL of each concentration was transferred into its own well in a 384-well plate. SAE1 was then diluted to 4× in Assay Buffer, and 2.5 μL of 4×SAE1 was mixed into each compound-containing well. After incubating for 15 minutes at RT, 5 μL of 2×Reaction Buffer was mixed into every well. Then after another 45 minutes at RT, 10 μL of Antibody Reaction Mix was added and mixed into every well. This plate was then read on an HTRF-compatible plate reader after 2 hours at RT, and again after sitting at RT overnight. [Final Component Concentrations: SAE1: 12.5 nM; SUMO-GST: 40 nM; UBC9-His: 40 nM; Anti-GST-XL665: 6.67 nM; Anti-His-EuK: 0.83 nM; and ATP: 100 μM] Alternatively, the compounds are tested at a single concentration of 25 micromolar and the percent of control is measured.
Sequence of SAE1 (Q9UBE0 whole entry): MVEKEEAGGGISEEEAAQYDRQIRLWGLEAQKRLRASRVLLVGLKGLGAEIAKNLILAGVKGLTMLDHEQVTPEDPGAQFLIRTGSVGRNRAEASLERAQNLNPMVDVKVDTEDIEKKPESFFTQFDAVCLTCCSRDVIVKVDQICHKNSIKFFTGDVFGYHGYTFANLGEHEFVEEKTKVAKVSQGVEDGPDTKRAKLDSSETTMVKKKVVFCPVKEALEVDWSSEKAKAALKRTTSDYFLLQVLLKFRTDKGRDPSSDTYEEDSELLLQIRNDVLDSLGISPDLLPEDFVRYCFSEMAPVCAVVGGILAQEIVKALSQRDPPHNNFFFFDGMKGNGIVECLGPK
Sequence of SAE1 (Q9UBT2 whole entry): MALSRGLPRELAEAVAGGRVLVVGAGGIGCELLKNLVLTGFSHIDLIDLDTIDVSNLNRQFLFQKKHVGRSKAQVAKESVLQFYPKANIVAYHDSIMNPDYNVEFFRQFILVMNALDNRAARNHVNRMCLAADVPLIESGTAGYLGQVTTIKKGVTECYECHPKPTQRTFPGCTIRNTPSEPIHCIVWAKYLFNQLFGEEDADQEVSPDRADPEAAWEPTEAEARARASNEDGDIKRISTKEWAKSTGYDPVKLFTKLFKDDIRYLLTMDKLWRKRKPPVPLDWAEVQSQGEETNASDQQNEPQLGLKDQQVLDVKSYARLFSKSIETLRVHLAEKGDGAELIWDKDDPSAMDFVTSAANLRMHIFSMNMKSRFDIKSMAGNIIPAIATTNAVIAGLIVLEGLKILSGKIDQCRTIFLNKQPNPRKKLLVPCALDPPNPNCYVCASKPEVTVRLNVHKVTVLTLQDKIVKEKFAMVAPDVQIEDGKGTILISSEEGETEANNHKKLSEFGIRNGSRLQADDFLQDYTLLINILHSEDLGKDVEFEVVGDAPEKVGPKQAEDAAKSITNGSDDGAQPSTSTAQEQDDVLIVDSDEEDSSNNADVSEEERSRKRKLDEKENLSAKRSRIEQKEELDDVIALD
Background: In TR-FRET formats the signal depends on donor and acceptor labels being close together.
Turning to `CC(C(=O)N(C)C)n1cc(-c2ccccc2[C@@H]2CN(C(=O)/C=C/CN(C)C)Cc3sc(C#N)cc32)c(C(F)(F)F)n1` (stereo partly drawn) [Example 164, 2-(4-(2-((S)-2-Cyano-6-((E)-4-(dimethylamino)but-2-enoyl)-4,5,6,7-tetrahydrothieno[2,3-c]pyridin-4-yl)phenyl)-3-(trifluoromethyl)-1 H-pyrazol-1-yl)-N, N-dimethylpropanamide], the IC50 came to 10.9 µM.
As to `CN(C)C/C=C/C(=O)N1Cc2sc(C#N)cc2[C@H](c2ccccc2-c2c[nH]nc2C(F)(F)F)C1` [Example 153, (S, E)-6-(4-(Dimethylamino)but-2-enoyl)-4-(2-(3-(trifluoromethyl)-1 H-pyrazol-4-yl)phenyl)-4,5,6,7-tetrahydrothieno[2,3-c]pyridine-2-carbonitrile], the IC50 turned out to be 9.68 µM.
As to `CCn1cc(-c2cc(C(F)F)ccc2C2CN(C(=O)/C=C/CN(C)C)Cc3sc(C#N)cc32)c(C(F)(F)F)n1` (stereo not shown) [Example 188, (E)-4-(4-(Difluoromethyl)-2-(1-ethyl-3-(trifluoromethyl)-1 H-pyrazol-4-yl)phenyl)-6-(4-(dimethylamino)but-2-enoyl)-4,5,6,7-tetrahydrothieno[2,3-c]pyridine-2-carbonitrile], the 50% inhibitory concentration (IC50) was 18 µM.
Turning to `CN(C)C/C=C/C(=O)N1Cc2sc(C#N)cc2[C@H](c2ccccc2-c2cn(CCc3ccccn3)nc2C(F)(F)F)C1` [Example 176, (S, E)-6-(4-(Dimethylamino)but-2-enoyl)-4-(2-(1-(2-(pyridin-2-yl)ethyl)-3-(trifluoromethyl)-1H-pyrazol-4-yl)phenyl)-4,5,6,7-tetrahydrothieno[2,3-c]pyridine-2-carbonitrile], the IC50 worked out at 19.9 µM.
As for `CCn1cc(-c2ccccc2[C@@H]2CN(C(=O)/C=C/C(C)(C)NC)Cc3sc(C#N)cc32)c(C(F)(F)F)n1` [Example 38, (S, E)-4-(2-(1-ethyl-3-(trifluoromethyl)-1 H-pyrazol-4-yl)phenyl)-6-(4-methyl-4-(methylamino)pent-2-enoyl)-4,5,6,7-tetrahydrothieno[2,3-c]pyridine-2-carbonitrile], the IC50 is above 25 µM.
For the compound `CN(C)C/C=C/C(=O)N1Cc2sc(C#N)cc2[C@H](c2ccccc2-c2cn(CC(N)=O)nc2C(F)(F)F)C1` [Example 162, (S, E)-2-(4-(2-(2-Cyano-6-(4-(dimethylamino)but-2-enoyl)-4,5,6,7-tetrahydrothieno[2,3-c]pyridin-4-yl)phenyl)-3-(trifluoromethyl)-1 H-pyrazol-1-yl)acetamide], the IC50 amounted to 11.6 µM.
To `CCOC(=O)CCn1cc(-c2ccccc2[C@@H]2CN(C(=O)/C=C/CN(C)C)Cc3sc(C#N)cc32)c(C(F)(F)F)n1` [Example 170, Ethyl (S,E)-3-(4-(2-(2-cyano-6-(4-(dimethylamino)but-2-enoyl)-4,5,6,7-tetrahydrothieno[2,3-c]pyridin-4-yl)phenyl)-3-(trifluoromethyl)-1H pyrazol-1-yl)propanoate] belongs 10.2 µM; to `CCn1cc(-c2cc(F)ccc2C2CN(C(=O)/C=C/CN(C)C)Cc3sc(C#N)cc32)c(C(F)(F)F)n1` (stereo not shown) [Example 211, (E)-6-(4-(Dimethylamino)but-2-enoyl)-4-(2-(1-ethyl-3-(trifluoromethyl)-1 H-pyrazol-4 yl)-4-fluorophenyl)-4,5,6,7-tetrahydrothieno[2,3-c]pyridine-2-carbonitrile], 20.2 µM.
Consider `C=C(C(=O)N1Cc2sc(C#N)cc2[C@H](c2ccccc2-c2cn(CC)nc2C(F)(F)F)C1)c1ccccc1` [Example 63, (S)-4-(2-(1-Ethyl-3-(trifluoromethyl)-1H pyrazol-4-yl)phenyl)-6-(2-phenylacryloyl)-4,5,6,7-tetrahydrothieno[2,3-c]pyridine-2-carbonitrile], for which the IC50 was above 25 µM.
As for `CC(C(=O)N(C)C)n1cc(-c2ccccc2[C@@H]2CN(C(=O)/C=C/CN(C)C)Cc3sc(C#N)cc32)c(C(F)(F)F)n1` (stereo partly drawn) [Example 163, 2-(4-(2-((S)-2-Cyano-6-((E)-4-(dimethylamino)but-2-enoyl)-4,5,6,7-tetrahydrothieno[2,3-c]pyridin-4-yl)phenyl)-3-(trifluoromethyl)-1 H-pyrazol-1-yl)-N, N-dimethylpropanamide], the IC50 turned out to be 8.68 µM.
On to `CCn1cc(-c2ccccc2[C@@H]2CN(C(=O)/C=C/CCN(C)C)Cc3sc(C#N)cc32)c(C(F)(F)F)n1` [Example 16], for which the IC50 is 18.1 µM.
`CCOC(=O)CCCn1cc(-c2ccccc2[C@@H]2CN(C(=O)/C=C/CN(C)C)Cc3sc(C#N)cc32)c(C(F)(F)F)n1` [Example 171]: the IC50 was 12 µM.
`CCn1cc(-c2ccccc2[C@@H]2CN(C(=O)/C=C/[C@H](C)N)Cc3sc(C#N)cc32)c(C(F)(F)F)n1` [Example 49, (S)-6-((S,E)-4-aminopent-2-enoyl)-4-(2-(1-ethyl-3-(trifluoromethyl)11 H-pyrazol-4-yl)phenyl)-4,5,6,7-tetrahydrothieno[2,3-c]pyridine-2-carbonitrile]: the IC50 stood at 10.1 µM.
`CCn1cc(-c2ccccc2[C@@H]2CN(C(=O)/C=C/[C@H]3CCC(C)(C)N3)Cc3sc(C#N)cc32)c(C(F)(F)F)n1` [Example 78, (S)-6-((E)-3-((R)-5,5-Dimethylpyrrolidin-2-yl)acryloyl)-4-(2-(1-ethyl-3-(trifluoromethyl)-1H pyrazol-4-yl)phenyl)-4,5,6,7-tetrahydrothieno[2,3-c]pyridine-2-carbonitrile]: the IC50 turned out to be 6 µM.
Regarding `CN(C)C/C=C/C(=O)N1Cc2sc(C#N)cc2[C@H](c2ccccc2-c2cn(CCc3ccncc3)nc2C(F)(F)F)C1` [Example 177, (S,E)-6-(4-(Dimethylamino)but-2-enoyl)-4-(2-(1-(2-(pyridin-4-yl)ethyl)-3-(trifluoromethyl)-1H pyrazol-4-yl)phenyl)-4,5,6,7-tetrahydrothieno[2,3-c]pyridine-2-carbonitrile], the IC50 worked out at 6.3 µM.
For the compound `CCn1cc(-c2cc(C)ccc2C2CN(C(=O)/C=C/CN(C)C)Cc3sc(C#N)cc32)c(C(F)(F)F)n1` (stereo not shown) [Example 210, (E)-6-(4-(Dimethylamino)but-2-enoyl)-4-(2-(1-ethyl-3-(trifluoromethyl)-1 H pyrazol-4-yl)-4-methylphenyl)-4,5,6,7-tetrahydrothieno[2,3-c]pyridine-2-carbonitrile], the IC50 was determined as 19.7 µM.
The value for `CCn1cc(-c2c(C3CN(C(=O)/C=C/CN(C)C)Cc4sc(C#N)cc43)cnn2C)c(C(F)(F)F)n1` (stereo not shown) [Example 198, (E)-6-(4-(Dimethylamino)but-2-enoyl)-4-(1′-ethyl-2-methyl-3′-(trifluoromethyl)-1′H,2H-[3,4′-bipyrazol]-4-yl)-4,5,6,7-tetrahydrothieno[2,3-c]pyridine-2-carbonitrile] was above 25 µM; that for `CCn1cc(-c2ccccc2[C@@H]2CN(C(=O)/C=C/CNC3(C)COC3)Cc3sc(C#N)cc32)c(C(F)(F)F)n1` [Example 95, (S, E)-4-(2-(1-Ethyl-3-(trifluoromethyl)-1 H-pyrazol-4-yl)phenyl)-6-(4-((3-methyloxetan-3-yl)amino)but-2-enoyl)-4,5,6,7-tetrahydrothieno[2,3-c]pyridine-2-carbonitrile] was 15.6 µM; that for `CCn1cc(-c2ccccc2[C@@H]2CN(C(=O)/C=C/[C@H](N)CO)Cc3sc(C#N)cc32)c(C(F)(F)F)n1` [Example 73, (S)-6-((S,E)-4-Amino-5-hydroxypent-2-enoyl)-4-(2-(1-ethyl-3-(trifluoromethyl)-1H pyrazol-4-yl)phenyl)-4,5,6,7-tetrahydrothieno[2,3-c]pyridine-2-carbonitrile] was 21.9 µM.

Usually IC50 stands for the concentration at which inhibition is half-maximal.
